Laboratory results published in the supplement of paper PMC10307832.

Tests used:
Experiment in all cases: relative viability (nuclei count vs DMSO), 5 days (fraction); higher = more cells survive
Alpelisib + Linsitinib = compound: Cc1nc(NC(=O)N2CCC[C@H]2C(N)=O)sc1-c1ccnc(C(C)(C)C(F)(F)F)c1 [Alpelisib] + C[C@]1(O)C[C@@H](c2nc(-c3ccc4ccc(-c5ccccc5)nc4c3)c3c(N)nccn32)C1 [Linsitinib] (partner 1 µM)
Summary of the method: (§1)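 A single step with final 0.05% Triton X-100, 1% formaldehyde and 1 ug/ml Hoechst fixed the cells and stained nuclei 5 days after treatment. Lung cancer cell lines in 1536-well plates had been treated by pin tool the day after seeding with one drug alone or a fixed anchor-drug dose plus five library-drug doses (not always all listed) in √10 steps, and nuclei were counted on 4× images. Relative viability is the ratio of nuclei in treated wells to nuclei in vehicle wells, taken as the median of duplicate plates.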

Alpelisib + Foretinib = compound: Cc1nc(NC(=O)N2CCC[C@H]2C(N)=O)sc1-c1ccnc(C(C)(C)C(F)(F)F)c1 [Alpelisib] + COc1cc2c(Oc3ccc(NC(=O)C4(C(=O)Nc5ccc(F)cc5)CC4)cc3F)ccnc2cc1OCCCN1CCOCC1 [Foretinib] (partner 0.25 µM)
Summary of the method: as §1

OSI-027 + Olaparib = compound: COc1cccc2cc(-c3nc([C@H]4CC[C@H](C(=O)O)CC4)n4ncnc(N)c34)[nH]c12 [OSI-027] + O=C(c1cc(Cc2n[nH]c(=O)c3ccccc23)ccc1F)N1CCN(C(=O)C2CC2)CC1 [Olaparib] (partner 8 µM)
Summary of the method: as §1

Alpelisib + AZD7762 = compound: Cc1nc(NC(=O)N2CCC[C@H]2C(N)=O)sc1-c1ccnc(C(C)(C)C(F)(F)F)c1 [Alpelisib] + NC(=O)Nc1cc(-c2cccc(F)c2)sc1C(=O)N[C@H]1CCCNC1 [AZD7762] (partner 0.2 µM)
Summary of the method: as §1

Row | Cell Line | relative viability (Alpelisib + Linsitinib; first compound 0.04 µM) | relative viability (Alpelisib + Linsitinib; first compound 0.1265 µM) | relative viability (Alpelisib + Linsitinib; first compound 0.4 µM) | relative viability (Alpelisib + Linsitinib; first compound 1.265 µM) | relative viability (Alpelisib + Linsitinib; first compound 4 µM) | relative viability (Alpelisib + Foretinib; first compound 0.04 µM) | relative viability (Alpelisib + Foretinib; first compound 0.1265 µM) | relative viability (Alpelisib + Foretinib; first compound 0.4 µM) | relative viability (Alpelisib + Foretinib; first compound 1.265 µM) | relative viability (Alpelisib + Foretinib; first compound 4 µM) | relative viability (OSI-027 + Olaparib; first compound 0.01 µM) | relative viability (OSI-027 + Olaparib; first compound 0.03162 µM) | relative viability (OSI-027 + Olaparib; first compound 0.1 µM) | relative viability (OSI-027 + Olaparib; first compound 0.3162 µM) | relative viability (OSI-027 + Olaparib; first compound 1 µM) | relative viability (Alpelisib + AZD7762; first compound 0.04 µM) | relative viability (Alpelisib + AZD7762; first compound 0.1265 µM) | relative viability (Alpelisib + AZD7762; first compound 0.4 µM) | relative viability (Alpelisib + AZD7762; first compound 1.265 µM) | relative viability (Alpelisib + AZD7762; first compound 4 µM)
1 | H3255 | 0.979 | 1.01 | 1.07 | 0.715 | 0.794 | 0.973 | 0.753 | 0.96 | 0.695 | 0.562 | 0.595 | 0.555 | 0.588 | 0.569 | 0.409 | 0.86 | 0.88 | 1.32 | 0.799 | 0.864
2 | HARA | 0.885 | 0.947 | 1.08 | 0.719 | 0.358 | 0.914 | 0.888 | 0.879 | 0.682 | 0.533 | 0.771 | 0.499 | 0.841 | 0.616 | 0.352 | 0.364 | 0.334 | 0.398 | 0.249 | 0.442
3 | HCC-15 | 0.892 | 0.873 | 0.878 | 0.863 | 0.767 | 0.982 | 1 | 0.961 | 0.792 | 0.735 | 0.799 | 0.745 | 0.729 | 0.683 | 0.397 | 1.23 | 1.35 | 1.32 | 1.05 | 0.908
4 | HCC-78 | 0.448 | 0.477 | 0.601 | 0.42 | 0.345 | 0.495 | 0.426 | 0.493 | 0.353 | 0.366 | 0.769 | 0.699 | 0.723 | 0.558 | 0.397 | 0.726 | 0.515 | 0.293 | 0.362 | 0.377
5 | HCC-366 | 0.716 | 0.519 | 0.375 | 0.327 | 0.152 | 0.887 | 0.939 | 0.868 | 0.861 | 0.349 | 0.331 | 0.386 | 0.417 | 0.386 | 0.219 | 0.317 | 0.316 | 0.307 | 0.183 | 0.072
6 | HCC-827 | 0.942 | 0.979 | 1.04 | 0.925 | 0.924 | 1 | 1.05 | 0.968 | 0.964 | 0.746 | 0.669 | 0.58 | 0.648 | 0.599 | 0.326 | 0.253 | 0.212 | 0.209 | 0.199 | 0.168
7 | HOP-62 | 0.801 | 0.959 | 1.16 | 0.976 | 0.922 | 1.08 | 1.15 | 1.23 | 1.02 | 0.978 | 0.605 | 0.68 | 0.456 | 0.594 | 0.167 | 0.607 | 0.386 | 1.21 | 0.651 | 0.614
8 | LC-2-ad | 0.766 | 0.798 | 0.839 | 0.724 | 0.66 | 0.863 | 0.908 | 0.966 | 0.601 | 0.576 | 0.774 | 0.721 | 0.836 | 0.87 | 0.737 | 0.812 | 0.874 | 0.863 | 0.684 | 0.583
